Molecules are shown by their SMILES.

From patent US20060104901A1, “Preventing or treating epithelial tissue damage or hair loss” (priority 2002, published 2006) come the findings set out here.

The test system of the test is CD1d gene transcription. Description: CD1d mRNA by Real Time PCR in primary human keratinocytes under H2O2 chemical stress. The class given is cell-based. Particulars: primary human keratinocytes exposed to 300 μM H2O2, KGM with vs without hydrocortisone, RNA at different times after treatment, FIG. 11. On the procedure: Primary human keratinocytes were grown in complete KGM before being exposed to 300 μM H2O2 as a stress factor. 48 hours after seeding, KGM medium was replaced by KGM without hydrocortisone and cultures were treated with 300 μM of H2O2. Total RNA was extracted at different time after treatment and CD1d mRNA quantified by Real Time PCR.
For Taq Man Assays, Applied Biosystems recommends to use 10 to 100 ng of initial RNA quantity per well. Consequently, first strand cDNA synthesis was performed in a 20 μl volume using 1 μg of total RNA and […] of random hexamers following the manufacturer's recommendations (Superscript™ First-Strand Synthesis System for RT-PCR, 11904-018, Invitrogen). 1 μl of the resulting cDNA samples was used for amplification by Real Time PCR. […]
All the cDNA samples were tested in triplicate. […] The plate was sealed, centrifuged at 2000 rpm for 30 seconds and placed in a 5700 Sequence Detection System for thermal cycling and fluorescence analysis using the following PCR program: […]
Results were analyzed using the GeneAmp® 5700 SDS software. […]
The gene expression fold changes obtained in the test condition compared to the control condition were determined by the comparative Ct method using the following formula: [formula] […]

On to `C[C@]12CCC(=O)C=C1CC[C@@H]1[C@@H]2[C@@H](O)C[C@@]2(C)[C@H]1CC[C@]2(O)C(=O)CO` [Hydrocortisone], for which the “CD1d gene transcription (CD1d mRNA, fold change by comparative Ct method)” value was “able to down-regulate CD1d expression”. For the same compound, the “CD1d gene transcription (CD1d mRNA, fold change by comparative Ct method)” value (listed as hydrocortisone) is listed as “suppresses CD1d transcription”.
